Data published in US20140357726A1, “USE OF PEGYLATED ALCOHOLS FOR THE TREATMENT OF ACTINIC KERATOSIS” (MERZ PHARMA GmbH & CO. KGaA, priority 2011, published 2014).

System: NHEK-cells
Experiment: Resazurin viability assay on primary normal human epidermal keratinocytes (cytolytic potential)
Format: cell-based
Settings: metabolic activity as read-out (Resazurin-assay); eight concentrations up to 1 mM
Procedure: By using primary, normal human epidermal keratinocytes (NHEK, FIG. 1) the cytolytic potential of the drug compound was investigated.
The viability of the cells was monitored by their metabolic activity using the Resazurin-assay. Eight different concentrations (up to 1 mM) of polidocanol were investigated. Viability of the cells was plotted against the different concentration of test compound.
From the resulting sigmoid-curve the IC50 value for the cytolytic effect was determined and given in the respective figure. FIG. 1 depicts the relative viability of NHEK-cells vs. the concentration of test-compound using metabolic activity as read-out.

Polidocanol was tested, and the “relative viability of NHEK-cells vs. the concentration of test-compound” value was “clear negative-impact”.
